In the experiment the target is T1, TcGPCR (G-protein-coupled neuropeptide receptor) (Tetranychus cinnabarinus, UniProt A0A2L1GE98).
T1 construct: full ORF in pcDNA3.1(+), transient expression in CHO-WTA11 cells with aequorin and Galpha16; seven TM helices, rhodopsin-like; T. urticae orthologue locus tetur02g03830
T1 sequence (A0A2L1GE98 1-513): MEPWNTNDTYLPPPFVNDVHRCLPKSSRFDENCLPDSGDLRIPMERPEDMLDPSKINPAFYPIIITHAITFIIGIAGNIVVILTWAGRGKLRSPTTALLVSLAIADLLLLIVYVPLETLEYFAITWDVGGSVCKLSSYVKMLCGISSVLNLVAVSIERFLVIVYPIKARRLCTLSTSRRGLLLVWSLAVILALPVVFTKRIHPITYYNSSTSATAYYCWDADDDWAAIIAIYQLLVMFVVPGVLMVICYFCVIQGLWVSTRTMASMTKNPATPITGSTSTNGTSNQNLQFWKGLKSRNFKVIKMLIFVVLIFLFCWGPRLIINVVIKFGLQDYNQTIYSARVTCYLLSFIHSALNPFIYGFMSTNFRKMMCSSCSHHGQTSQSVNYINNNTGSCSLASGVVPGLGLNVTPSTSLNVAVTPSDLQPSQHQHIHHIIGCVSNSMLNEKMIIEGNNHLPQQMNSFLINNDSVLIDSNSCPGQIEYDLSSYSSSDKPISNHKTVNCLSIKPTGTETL
Put plainly: aequorin luminescence calcium mobilization in transfected CHO-WTA11 cells. The experiment is classed as cell-based. An excerpt: aequorin luminescence calcium mobilization in transfected CHO-WTA11 cells on TcGPCR (G-protein-coupled neuropeptide receptor) | CHO cells expressing TcGPCR was induced by scopoletin in a concentration-dependent manner
Background: Calcium flux is commonly read through the fluorescence of an indicator in the cells.

For orientation: EC50 means the concentration that produces a half-maximal response.

SMILES strings stand for the structures.

For `COc1cc2ccc(=O)oc2cc1O` [scopoletin], the EC50 stood at 280 nM.

These data come from article PMC6414448, “Acaricidal Mechanism of Scopoletin Against Tetranychus cinnabarinus” (Frontiers in Physiology, 2019).
